# Like-named read-outs stand apart in the source and are kept apart here.
# Legend:
# cervical cancer [1] = settings: 5/19; squamous histology only; cited from earlier work
# cervical cancer [2] = settings: patient population of 60% squamous histology; cited from earlier work
# [3] = tested on: recurrent or metastatic cervical cancer that has progressed after first-line platinum-based treatment
# cervical cancer [4] = settings: 12/98; cited from earlier work
# [5] = subgroup with IC chemotherapy selected prior to randomisation: Irinotecan (n = 26 vs 19)
# [6] = subgroup with IC chemotherapy selected prior to randomisation: Gemcitabine (n = 108 vs 121)
compound,measurement,setting,value
nivolumab,objective response rate,cervical cancer [1],26.3%
same,response rate,cervical cancer [2],4%
"CCc1c2c(nc3ccc(OC(=O)N4CCC(N5CCCCC5)CC4)cc13)-c1cc3c(c(=O)n1C2)COC(=O)[C@]3(O)CC [irinotecan, reference compound]",Median OS (95% CI),[3]; [5],11.8 (6.9-14.9) months
same,Median PFS (95% CI),[3]; [5],4.2 (1.6-8.3) months
same,ORR,[3]; [5],15.8%
"Nc1ccn([C@@H]2O[C@H](CO)[C@@H](O)C2(F)F)c(=O)n1 [gemcitabine, reference compound]",Median OS (95% CI),[3]; [6],9.0 (7.0-10.6) months
same,Median PFS (95% CI),[3]; [6],2.8 (2.1-3.9) months
same,ORR,[3]; [6],5.0%
pembrolizumab,ORR in the cervical cancer cohort,cervical cancer [4],12.2%
